Measured values reported in patent US20250270213A1, “PI3Ka INHIBITORS” (Synnovation Therapeutics, Inc., priority 2022, published 2025).

What follows are compounds tested on T47D (PIK3CA H1047R) cells (assay: pS473 AKT assay with 2.5% FBS, T47D cells). Details: Homo sapiens, pSer473 AKT, DMEM with 2.5% FBS, 2 h treatment, read-out: T47D_IC50.
Assay type: cell-based
In short: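 In-cell chemiluminescent ELISA of AKT Ser473 phosphorylation, using anti-pSer473 primary and HRP secondary antibodies on fixed cells. T47D (PIK3CA H1047R) cells had 2 h of compound treatment in DMEM containing 2.5% FBS; IC50 derived from dose-response.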

IC50, < 1000 nM:
Cc1cc(C(C)Nc2ccc(Cl)nc2-c2cnn(C3CCN(C)C3)c2)c2c(c1)c(=O)n1c3c2cnn3CCC1 (stereo not drawn) [Compound 303, 10-(1-((6-chloro-2-(1-(1-methylpyrrolidin-3-yl)-1H-pyrazol-4-yl)pyridin-3-yl)amino)ethyl)-8-methyl-4,5-dihydro-3H,6H-2,2a,5a-triazaaceanthrylen-6-one]
Cc1cc(C(C)Nc2ccc(Cl)nc2-c2cnn(C3CN(C)C3)c2)c2c(c1)c(=O)n1c3c2cnn3CCC1 (stereo not drawn) [Compound 304, 10-(1-((6-chloro-2-(1-(1-methylazetidin-3-yl)-1H-pyrazol-4-yl)pyridin-3-yl)amino)ethyl)-8-methyl-4,5-dihydro-3H,6H-2,2a,5a-triazaaceanthrylen-6-one]
Cc1cc(C(C)Nc2ccc(Cl)nc2-c2cnn(C3CCN(C(=O)N(C)C)CC3)c2)c2c(c1)c(=O)n1c3c2cnn3CCC1 (stereo not drawn) [Compound 305, 4-(4-(6-chloro-3-((1-(8-methyl-6-oxo-4,5-dihydro-3H,6H-2,2a,5a-triazaaceanthrylen-10-yl)ethyl)amino)pyridin-2-yl)-1H-pyrazol-1-yl)-N,N-dimethylpiperidine-1-carboxamide]
Cc1cc(C(C)Nc2ccc(Cl)nc2-c2ccnc(C)c2)c2c(c1)c(=O)n1c3c2cnn3CCC1 (stereo not drawn) [Compound 306, 10-(1-((6-chloro-2′-methyl-[2,4′-bipyridin]-3-yl)amino)ethyl)-8-methyl-4,5-dihydro-3H,6H-2,2a,5a-triazaaceanthrylen-6-one]
Cc1cc(C(C)Nc2ccc(Cl)nc2-c2cccnc2)c2c(c1)c(=O)n1c3c2cnn3CCC1 (stereo not drawn) [Compound 307, 10-(1-((6-chloro-[2,3′-bipyridin]-3-yl)amino)ethyl)-8-methyl-4,5-dihydro-3H,6H-2,2a,5a-triazaaceanthrylen-6-one]
Cc1cc(C(C)Nc2ccc(Cl)nc2-c2ccc(=O)n(C)c2)c2c(c1)c(=O)n1c3c2cnn3CCC1 (stereo not drawn) [Compound 308, 10-(1-((6-chloro-1′-methyl-6′-oxo-1′,6′-dihydro-[2,3′-pyridin]-3-yl)amino)ethyl)-8-methyl-4,5-dihydro-3H,6H-2,2a,5a-triazaaceanthrylen-6-one]
CNC(=O)c1ccc(-c2nc(Cl)ccc2NC(C)c2cc(C)cc3c(=O)n4c5c(cnn5CCC4)c23)cc1F (stereo not drawn) [Compound 309, 4-(6-chloro-3-((1-(8-methyl-6-oxo-4,5-dihydro-3H,6H-2,2a,5a-triazaaceanthrylen-10-yl)ethyl)amino)pyridin-2-yl)-2-fluoro-N-methylbenzamide]
CNC(=O)c1ccc(-c2nc(Cl)ccc2NC(C)c2cc(C)cc3c(=O)n4c5c(cnn5CCC4)c23)cn1 (stereo not drawn) [Compound 310, 6-chloro-N-methyl-3-((1-(8-methyl-6-oxo-4,5-dihydro-3H,6H-2,2a,5a-triazaaceanthrylen-10-yl)ethyl)amino)-[2,3′-bipyridine]-6′-carboxamide]
COc1ccc(-c2nc(Cl)ccc2NC(C)c2cc(C)cc3c(=O)n4c5c(cnn5CCC4)c23)cn1 (stereo not drawn) [Compound 311, 10-(1-((6-chloro-6′-methoxy-[2,3′-bipyridin]-3-yl)amino)ethyl)-8-methyl-4,5-dihydro-3H,6H-2,2a,5a-triazaaceanthrylen-6-one]
COc1cc(-c2nc(Cl)ccc2NC(C)c2cc(C)cc3c(=O)n4c5c(cnn5CCC4)c23)ccn1 (stereo not drawn) [Compound 312, 10-(1-((6-chloro-2′-methoxy-[2,4′-bipyridin]-3-yl)amino)ethyl)-8-methyl-4,5-dihydro-3H,6H-2,2a,5a-triazaaceanthrylen-6-one]
Cc1cc(C(C)Nc2ccc(Cl)nc2-c2ccnc(N(C)C)c2)c2c(c1)c(=O)n1c3c2cnn3CCC1 (stereo not drawn) [Compound 313, 10-(1-((6-chloro-2′-(dimethylamino)-[2,4′-bipyridin]-3-yl)amino)ethyl)-8-methyl-4,5-dihydro-3H,6H-2,2a,5a-triazaaceanthrylen-6-one]
Cc1cc(C(C)Nc2ccc(Cl)nc2-c2ccc3c(c2)CN(C)C3=O)c2c(c1)c(=O)n1c3c2cnn3CCC1 (stereo not drawn) [Compound 314, 10-(1-((6-chloro-2-(2-methyl-1-oxoisoindolin-5-yl)pyridin-3-yl)amino)ethyl)-8-methyl-4,5-dihydro-3H,6H-2,2a,5a-triazaaceanthrylen-6-one]
Cc1cc(C(C)Nc2ccc(Cl)nc2-c2ccc3ncccc3c2)c2c(c1)c(=O)n1c3c2cnn3CCC1 (stereo not drawn) [Compound 315, 10-(1-((6-chloro-2-(quinolin-6-yl)pyridin-3-yl)amino)ethyl)-8-methyl-4,5-dihydro-3H,6H-2,2a,5a-triazaaceanthrylen-6-one]
Cc1cc(C(C)Nc2ccc(Cl)nc2-c2ccc3c(cnn3C)c2)c2c(c1)c(=O)n1c3c2cnn3CCC1 (stereo not drawn) [Compound 316, 10-(1-((6-chloro-2-(1-methyl-1H-indazol-5-yl)pyridin-3-yl)amino)ethyl)-8-methyl-4,5-dihydro-3H,6H-2,2a,5a-triazaaceanthrylen-6-one]
CNC(=O)c1ccc(-c2nc(C)ccc2NC(C)c2cc(C)cc3c(=O)n4c5c(cnn5CCC4)c23)cc1F (stereo not drawn) [Compound 317, 2-fluoro-N-methyl-4-(6-methyl-3-((1-(8-methyl-6-oxo-4,5-dihydro-3H,6H-2,2a,5a-triazaaceanthrylen-10-yl)ethyl)amino)pyridin-2-yl)benzamide]
Cc1cc(C(C)Nc2ccc(C)nc2-c2cnn(C3CCOCC3)c2)c2c(c1)c(=O)n1c3c2cnn3CCC1 (stereo not drawn) [Compound 318, 8-methyl-10-(1-((6-methyl-2-(1-(tetrahydro-2H-pyran-4-yl)-1H-pyrazol-4-yl)pyridin-3-yl)amino)ethyl)-4,5-dihydro-3H,6H-2,2a,5a-triazaaceanthrylen-6-one]
Cc1cc(C(C)Nc2ccc(C)nc2-c2cnn(CCO)c2)c2c(c1)c(=O)n1c3c2cnn3CCC1 (stereo not drawn) [Compound 319, 10-(1-((2-(1-(2-hydroxyethyl)-1H-pyrazol-4-yl)-6-methylpyridin-3-yl)amino)ethyl)-8-methyl-4,5-dihydro-3H,6H-2,2a,5a-triazaaceanthrylen-6-one]
Cc1cc(C(C)Nc2ccc(C)nc2-c2ccnc(C)c2)c2c(c1)c(=O)n1c3c2cnn3CCC1 (stereo not drawn) [Compound 320, 10-(1-((2′,6-dimethyl-[2,4′-bipyridin]-3-yl)amino)ethyl)-8-methyl-4,5-dihydro-3H,6H-2,2a,5a-triazaaceanthrylen-6-one]
Cc1cc(C(C)Nc2ccc(C)nc2-c2cnn(C3CC3)c2)c2c(c1)c(=O)n1c3c2cnn3CCC1 (stereo not drawn) [Compound 321, 10-(1-((2-(1-cyclopropyl-1H-pyrazol-4-yl)-6-methylpyridin-3-yl)amino)ethyl)-8-methyl-4,5-dihydro-3H,6H-2,2a,5a-triazaaceanthrylen-6-one]
Cc1cc(C(C)Nc2ccc(Cl)nc2N2CCN3C(=O)OCC3C2)c2c(c1)c(=O)n1c3c2cnn3CCC1 (stereo not drawn) [Compound 322, 7-(6-chloro-3-((1-(8-methyl-6-oxo-4,5-dihydro-3H,6H-2,2a,5a-triazaaceanthrylen-10-yl)ethyl)amino)pyridin-2-yl)hexahydro-3H-oxazolo[3,4-a]pyrazin-3-one]
Cc1cc(C(C)Nc2ccc(Cl)nc2-c2cnn3c2CN(C)CC3)c2c(c1)c(=O)n1c3c2cnn3CCC1 (stereo not drawn) [Compound 323, 10-(1-((6-Chloro-2-(5-methyl-4,5,6,7-tetrahydropyrazolo[1,5-a]pyrazin-3-yl)pyridin-3-yl)amino)ethyl)-8-methyl-4,5-dihydro-3H,6H-2,2a,5a-triazaaceanthrylen-6-one]
Cc1cc(C(C)Nc2ccc(Cl)nc2-c2ccc(CN(C)C)nc2)c2c(c1)c(=O)n1c3c2cnn3CCC1 (stereo not drawn) [Compound 324, 10-(1-((6-Chloro-6′-((dimethylamino)methyl)-[2,3′-bipyridin]-3-yl)amino)ethyl)-8-methyl-4,5-dihydro-3H,6H-2,2a,5a-triazaaceanthrylen-6-one]
Cc1cc(C(C)Nc2ccc(C)nc2-c2noc(=O)[nH]2)c2c(c1)c(=O)n1c3c2cnn3C(C)CC1 (stereo not drawn) [Compound 325, 3-(3-((1-(3,8-Dimethyl-6-oxo-4,5-dihydro-3H,6H-2,2a,5a-triazaaceanthrylen-10-yl)ethyl)amino)-6-methylpyridin-2-yl)-1,2,4-oxadiazol-5(4H)-one]
Cc1cc(C(C)Nc2ccc(C)nc2-c2nnn(C)n2)c2c(c1)c(=O)n1c3c2cnn3CCC1 (stereo not drawn) [Compound 326, 8-Methyl-10-(1-((6-methyl-2-(2-methyl-2H-tetrazol-5-yl)pyridin-3-yl)amino)ethyl)-4,5-dihydro-3H,6H-2,2a,5a-triazaaceanthrylen-6-one]
CCn1ncc2c3c(C(C)Nc4ccc(C)nc4-c4noc(=O)[nH]4)cc(C)cc3c(=O)n(C)c21 (stereo not drawn) [Compound 327, 3-(3-((1-(3-Ethyl-4,7-dimethyl-5-oxo-4,5-dihydro-3H-pyrazolo[3,4-c]isoquinolin-9-yl)ethyl)amino)-6-methylpyridin-2-yl)-1,2,4-oxadiazol-5(4H)-one]
Cc1cc(C(CO)Nc2ccc(Cl)nc2-c2ncn(C)n2)c2c(c1)c(=O)n1c3c2cnn3CCC1 (stereo not drawn) [Compound 328, 10-(1-((6-Chloro-2-(1-methyl-1H-1,2,4-triazol-3-yl)pyridin-3-yl)amino)-2-hydroxyethyl)-8-methyl-4,5-dihydro-3H,6H-2,2a,5a-triazaaceanthrylen-6-one]
Cc1cc(C(CO)Nc2ccc(Cl)nc2-c2cnn(C)c2)c2c(c1)c(=O)n1c3c2cnn3CCC1 (stereo not drawn) [Compound 329, 10-(1-((6-chloro-2-(1-methyl-1H-pyrazol-4-yl)pyridin-3-yl)amino)-2-hydroxyethyl)-8-methyl-4,5-dihydro-3H,6H-2,2a,5a-triazaaceanthrylen-6-one]
